In PubChem BioAssay (NCI):
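Interpolation was linear, between the two tested concentrations surrounding the appropriate level; five concentrations were tested over 48 hours in 96-well plates. TGI marks complete inhibition of growth.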

Key:
Assay in all cases: NCI tumour cell line growth inhibition, 48 h
T-47D breast = tested on: T-47D breast
COLO 205 colon = tested on: COLO 205 colon
NCI/ADR-RES ovarian = tested on: NCI/ADR-RES ovarian
OVCAR-4 ovarian = tested on: OVCAR-4 ovarian
786-0 renal = tested on: 786-0 renal
NCI-H226 lung = tested on: NCI-H226 lung
SF-295 CNS = tested on: SF-295 CNS
SK-MEL-2 melanoma = tested on: SK-MEL-2 melanoma
OVCAR-8 ovarian = tested on: OVCAR-8 ovarian
K-562 leukemia = tested on: K-562 leukemia
SW-620 colon = tested on: SW-620 colon
IGROV1 ovarian = tested on: IGROV1 ovarian
MALME-3M melanoma = tested on: MALME-3M melanoma
A549 NSCLC = tested on: A549 NSCLC
HS 578T breast = tested on: HS 578T breast
SN12C renal = tested on: SN12C renal
BT-549 breast = tested on: BT-549 breast
A498 renal = tested on: A498 renal
ACHN renal = tested on: ACHN renal
UACC-257 melanoma = tested on: UACC-257 melanoma
NCI-H23 lung = tested on: NCI-H23 lung
HOP-92 NSCLC = tested on: HOP-92 NSCLC
MDA-MB-231 breast = tested on: MDA-MB-231 breast
SF-268 CNS = tested on: SF-268 CNS
OVCAR-5 ovarian = tested on: OVCAR-5 ovarian
HOP-62 NSCLC = tested on: HOP-62 NSCLC
SK-OV-3 ovarian = tested on: SK-OV-3 ovarian
DU-145 prostate = tested on: DU-145 prostate
HCC-2998 colon = tested on: HCC-2998 colon
CAKI-1 renal = tested on: CAKI-1 renal
NCI-H460 lung = tested on: NCI-H460 lung
HT29 colon = tested on: HT29 colon
SNB-75 CNS = tested on: SNB-75 CNS
CCRF-CEM leukemia = tested on: CCRF-CEM leukemia
MDA-N = tested on: MDA-N
SK-MEL-5 melanoma = tested on: SK-MEL-5 melanoma
OVCAR-3 ovarian = tested on: OVCAR-3 ovarian
NCI-H522 lung = tested on: NCI-H522 lung
TK-10 renal = tested on: TK-10 renal
KM12 colon = tested on: KM12 colon
SNB-19 CNS = tested on: SNB-19 CNS
U251 CNS = tested on: U251 CNS
EKVX NSCLC = tested on: EKVX NSCLC
MOLT-4 leukemia = tested on: MOLT-4 leukemia
UO-31 renal = tested on: UO-31 renal
MCF7 breast = tested on: MCF7 breast
LOX IMVI melanoma = tested on: LOX IMVI melanoma
UACC-62 melanoma = tested on: UACC-62 melanoma
M14 melanoma = tested on: M14 melanoma
HCT-15 colon = tested on: HCT-15 colon
MDA-MB-435 = tested on: MDA-MB-435
PC-3 prostate = tested on: PC-3 prostate
RPMI-8226 leukemia = tested on: RPMI-8226 leukemia
SF-539 CNS = tested on: SF-539 CNS
HCT-116 colon = tested on: HCT-116 colon
RXF 393 renal = tested on: RXF 393 renal
SR leukemia = tested on: SR leukemia
HL-60(TB) leukemia = tested on: HL-60(TB) leukemia
SK-MEL-28 melanoma = tested on: SK-MEL-28 melanoma

Measured: TGI

Nc1nc(N)c(NC(=O)CCCO)c(=O)[nH]1
not listed: SR leukemia | HL-60(TB) leukemia | SK-MEL-28 melanoma
> 100 µM: all other assays above

Cc1ccc2c(=O)c3cccc(CC(=O)O)c3[nH]c2c1C
90.5 µM: SF-268 CNS
not listed: T-47D breast | SK-MEL-2 melanoma | OVCAR-5 ovarian | HCC-2998 colon | SNB-75 CNS | RXF 393 renal
> 100 µM: all other assays above
